Source: patent US10786451B2, “Process for preparing a dry powder formulation comprising an anticholinergic, a corticosteroid and a beta-adrenergic” (CHIESI FARMACEUTICI S.P.A., priority 2015, dated 2020)

Key:
[1] = formulations disclosed Table 3 of WO 2015/004243; cited from earlier work
[2] = Aerosol performance by Next Generation Impactor (NGI) from multidose dry powder inhaler; assay type: physicochemical
From the text: With the term “mid FPF” is defined as the fraction of delivered dose having a particle size comprised between […].
After aerosolization of 3 doses from the inhaler device, the NGI apparatus was disassembled and the amounts of drug deposited in the stages were recovered by washing with a solvent mixture and then quantified by High-Performance Liquid Chromatography (HPLC)

[3] = Particle size (volume diameter) by laser diffraction, Malvern apparatus; assay type: physicochemical; settings: micronized material as used
Description: The size of the particles active is determined by measuring the characteristic equivalent sphere diameter, known as volume diameter, by laser diffraction. In the reported examples, the volume diameter has been determined using a Malvern apparatus. However, other equivalent apparatus may be used by the skilled person in the art.

[4] = Uniformity of distribution of the active ingredients in the blend (12 samples, HPLC); assay type: physicochemical
Description: In the context of the present application the flow properties were tested by measuring the flow rate through an orifice according to the method described in the European Pharmacopeia (Eur. Ph.) 8.6, 8th Edition, which is incorporated herein by reference in its entirety. […] It is usually determined according to known methods, for instance by taking samples from different parts of the powder and testing the component by HPLC or other equivalent analytical methods. The uniformity of distribution of the active ingredients was evaluated by withdrawing 12 samples from different parts of the blend and evaluated by HPLC.

[5] = Batch CY (Cyclomix), reference formulation per WO 2015/004243
[6] = Batch MF (mechano-fusion), reference formulation per WO 2015/004243
[7] = powder formulation of Example 2
[8] = powder formulation of Example 2, NGI, 3 doses
[9] = powder formulation of Example 2, between 2.0 and 5.0 micron
[10] = powder formulation of Example 2, particle size equal to or lower than 5.0 micron
[11] = powder formulation of Example 3
[12] = powder formulation of Example 3, NGI
[13] = powder formulation of Example 3, between 2.0 and 5.0 micron
[14] = powder formulation of Example 3, particle size equal to or lower than 5.0 micron

In the case of `C[N+]1(C)CCC(OC(=O)C(O)(c2ccccc2)C2CCCC2)C1` (centres unmarked) [GB, Glycopyrronium bromide], the “mid FPF” value [1] is given as “about 20%”, the “Delivered Dose” value [2, 5] is given as 11.6 µg and the “Extrafine Particle Fraction <2 μm” value [2, 5] is given as 34.5%. For the same compound, the “Extrafine Particle Mass <2 μm” value [2, 5] was 4.0 µg, the “Fine Particle Fraction” value [2, 5] was 53.8% and the “Fine Particle Mass” value [2, 5] was 6.6 µg. The MMAD [2, 5] was 1.78 μm, the “Mid Fine Particle Mass” value [2, 5] was 2.6 µg and the “Mid Fine particle Fraction” value [2, 5] was 22.4%. The “Delivered Dose” value [2, 6] was 11.9 µg, the “Extrafine Particle Fraction <2 μm” value [2, 6] was 33.6% and the “Extrafine Particle Mass <2 μm” value [2, 6] was 4.0 µg. For the same compound, the “Fine Particle Fraction” value [2, 6] was 57.2%, the “Fine Particle Mass” value [2, 6] was 6.4 µg and the MMAD [2, 6] was 1.75 μm. The “Mid Fine Particle Mass” value [2, 6] was 2.5 µg, the “Mid Fine particle Fraction” value [2, 6] was 21.0% and the “Extrafine Particle Fraction <1 μm” value [2, 7] was 15.4%. The “Extrafine Particle Fraction <2 μm” value [2, 7] was 37.6%, the “Extrafine Particle Mass <1 μm” value [2, 7] was 1.8 µg and the “Extrafine Particle Mass <2 μm” value [2, 7] was 4.39 µg. The “Fine Particle Fraction” value [2, 7] was 67.2%, the MMAD [2, 7] was 1.92 μm and the “Delivered Dose” value [2, 8] was 11.66 µg. The “Mid Fine Particle Mass” value [2, 9] was 3.46 µg, the “Mid Fine particle Fraction” value [2, 9] was 29.6% and the “Mid Fine particle Fraction” value ([2]; powder formulation of Example 2, between 2.0 and 5.0 micron, listed as glycopyrrolate) was “about 30%”. The “Fine Particle Mass” value [2, 10] was 7.85 µg, the “Extrafine Particle Fraction <1 μm” value [2, 11] was 8.7% and the “Extrafine Particle Fraction <2 μm” value [2, 11] was 27.4%. For the same compound, the “Extrafine Particle Mass <1 μm” value [2, 11] was 1.75 µg, the “Extrafine Particle Mass <2 μm” value [2, 11] was 5.49 µg and the “Fine Particle Fraction” value [2, 11] was 57.1%. For the same compound, the MMAD [2, 11] was 2.15 μm, the “Delivered Dose” value [2, 12] was 20.03 µg and the “Mid Fine Particle Mass” value [2, 13] was 5.94 µg. For the same compound, the “Mid Fine particle Fraction” value [2, 13] was 29.7%, the “Mid Fine particle Fraction” value ([2]; powder formulation of Example 3, between 2.0 and 5.0 micron, listed as glycopyrrolate) was “about 30%” and the “Fine Particle Mass” value [2, 14] was 11.43 µg. The “particle size d(v0.1)” value [3] was 0.39 micron, the “particle size d(v0.5)” value [3] was 1.91 micron and the “particle size d(v0.9)” value [3] was 4.77 micron.
With `CCC(=O)OCC(=O)[C@@]1(OC(=O)CC)[C@@H](C)C[C@H]2[C@@H]3CCC4=CC(=O)C=C[C@]4(C)[C@@]3(Cl)[C@@H](O)C[C@@]21C` [BDP, beclometasone dipropionate] the Uniformity of distribution ([4]; powder formulation of Example 2 (6 μg FF, 100 μg BDP, 12.5 μg GB per 10 mg carrier), mean value, RSD in next column) was 101.8, the Uniformity of distribution ([4]; powder formulation of Example 3 (6 μg FF, 100 μg BDP, 25 μg GB per 10 mg carrier)) was 100.2 and the “Delivered Dose” value [2, 5] was 90.6 µg. For the same compound, the “Extrafine Particle Fraction <2 μm” value [2, 5] was 53.9%, the “Extrafine Particle Mass <2 μm” value [2, 5] was 48.8 µg and the “Fine Particle Fraction” value [2, 5] was 71.2%. For the same compound, the “Fine Particle Mass” value [2, 5] was 64.5 µg, the MMAD [2, 5] was 1.08 μm and the “Mid Fine Particle Mass” value [2, 5] was 15.7 µg. The “Mid Fine particle Fraction” value [2, 5] was 17.3%, the “Delivered Dose” value [2, 6] was 95.7 µg and the “Extrafine Particle Fraction <2 μm” value [2, 6] was 52.2%. For the same compound, the “Extrafine Particle Mass <2 μm” value [2, 6] was 50.0 µg, the “Fine Particle Fraction” value [2, 6] was 69.9% and the “Fine Particle Mass” value [2, 6] was 66.9 µg. The MMAD [2, 6] was 1.13 μm, the “Mid Fine Particle Mass” value [2, 6] was 16.9 µg and the “Mid Fine particle Fraction” value [2, 6] was 17.7%. The “Extrafine Particle Fraction <1 μm” value [2, 7] was 28.7%, the “Extrafine Particle Fraction <2 μm” value [2, 7] was 51.4% and the “Extrafine Particle Mass <1 μm” value [2, 7] was 27.9 µg. For the same compound, the “Extrafine Particle Mass <2 μm” value [2, 7] was 50 µg, the “Fine Particle Fraction” value [2, 7] was 69.4% and the MMAD [2, 7] was 1.25 μm. The “Delivered Dose” value [2, 8] was 97.4 µg, the “Mid Fine Particle Mass” value [2, 9] was 17.6 µg and the “Mid Fine particle Fraction” value [2, 9] was 18%. For the same compound, the “Fine Particle Mass” value [2, 10] was 67.6 µg, the “Extrafine Particle Fraction <1 μm” value [2, 11] was 16.2% and the “Extrafine Particle Fraction <2 μm” value [2, 11] was 40.3%. For the same compound, the “Extrafine Particle Mass <1 μm” value [2, 11] was 13.1 µg, the “Extrafine Particle Mass <2 μm” value [2, 11] was 32.7 µg and the “Fine Particle Fraction” value [2, 11] was 61.8%. For the same compound, the MMAD [2, 11] was 1.62 μm, the “Delivered Dose” value [2, 12] was 80.9 µg and the “Mid Fine Particle Mass” value [2, 13] was 17.3 µg. For the same compound, the “Mid Fine particle Fraction” value [2, 13] was 21.4%, the “Fine Particle Mass” value [2, 14] was 50.0 µg and the “particle size d(v0.1)” value [3] was 0.7 micron. For the same compound, the “particle size d(v0.5)” value [3] was 1.5 micron and the “particle size d(v0.9)” value [3] was 2.8 micron.
With `O.OC[C@H]1O[C@@H](O[C@H]2[C@H](O)[C@@H](O)[C@@H](O)O[C@@H]2CO)[C@H](O)[C@@H](O)[C@H]1O` [Micronized alpha-lactose monohydrate, alpha-lactose monohydrate] the “particle size d(v0.1)” value [3] was 1.7 micron, the “particle size d(v0.5)” value [3] was 4.3 micron and the “particle size d(v0.9)” value [3] was 9.8 micron.
